According to patent US8192962B2, “Processes for detecting toxic substances” (Daikin Industries, Ltd., priority 2001, dated 2012):

Tested on: Unknown protein yeast genes
Assay: DNA chip mRNA expression in yeast, unknown protein yeast genes (Table 1)
Format: cell-based, Saccharomyces cerevisiae S288C
How it was run: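 Ratios compare mRNA levels in stressed and control S. cerevisiae. Each toxicant was applied for two hours to log-phase cultures at 25° C. at a sub-lethal, growth-inhibiting level; fluorescent cDNA (Cy3- or Cy5-dUTP) was hybridized to a genome-wide yeast chip for over 12 h at 65° C.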

## CCCCC[C@H](O)CC(=O)CCc1ccc(O)c(OC)c1 [(13), gingerol]
Yeast gene YLR415C
  The level of expressed mRNA in the presence of chemical substance/The level of expressed mRNA in the absence of chemical substance: 1.0
Yeast gene YLR421C, incubated two hours with substance
  The level of expressed mRNA in the presence of chemical substance/The level of expressed mRNA in the absence of chemical substance: 1.6
Yeast gene YLR427W
  The level of expressed mRNA in the presence of chemical substance/The level of expressed mRNA in the absence of chemical substance: 2.5
Yeast gene YLR460C
  The level of expressed mRNA in the presence of chemical substance/The level of expressed mRNA in the absence of chemical substance: 0.7
Yeast gene YML013W
  The level of expressed mRNA in the presence of chemical substance/The level of expressed mRNA in the absence of chemical substance: 1.2
Yeast gene YML029W
  The level of expressed mRNA in the presence of chemical substance/The level of expressed mRNA in the absence of chemical substance: 2.0
Yeast gene YML041C
  The level of expressed mRNA in the presence of chemical substance/The level of expressed mRNA in the absence of chemical substance: 1.2
Yeast gene YML079W
  The level of expressed mRNA in the presence of chemical substance/The level of expressed mRNA in the absence of chemical substance: 1.6
Yeast gene YMR068W
  The level of expressed mRNA in the presence of chemical substance/The level of expressed mRNA in the absence of chemical substance: 1.4
Yeast gene YMR071C
  The level of expressed mRNA in the presence of chemical substance/The level of expressed mRNA in the absence of chemical substance: 1.3
Yeast gene YMR102C, incubated two hours with chemical substance
  The level of expressed mRNA in the presence of chemical substance/The level of expressed mRNA in the absence of chemical substance: 4.4
Yeast gene YMR160W
  The level of expressed mRNA in the presence of chemical substance/The level of expressed mRNA in the absence of chemical substance: 1.6
Yeast gene YMR258C, incubated two hours with substance
  The level of expressed mRNA in the presence of chemical substance/The level of expressed mRNA in the absence of chemical substance: 1.6
Yeast gene YMR315W
  The level of expressed mRNA in the presence of chemical substance/The level of expressed mRNA in the absence of chemical substance: 2.5
Yeast gene YNL026W
  The level of expressed mRNA in the presence of chemical substance/The level of expressed mRNA in the absence of chemical substance: 1.7
Yeast gene YNL058C
  The level of expressed mRNA in the presence of chemical substance/The level of expressed mRNA in the absence of chemical substance: 0.6
Yeast gene YNL063W
  The level of expressed mRNA in the presence of chemical substance/The level of expressed mRNA in the absence of chemical substance: 1.5
Yeast gene YNL176C
  The level of expressed mRNA in the presence of chemical substance/The level of expressed mRNA in the absence of chemical substance: 0.6
Yeast gene YNL194C
  The level of expressed mRNA in the presence of chemical substance/The level of expressed mRNA in the absence of chemical substance: 1.5
Yeast gene YNL200C
  The level of expressed mRNA in the presence of chemical substance/The level of expressed mRNA in the absence of chemical substance: 1.1
Yeast gene YNL253W
  The level of expressed mRNA in the presence of chemical substance/The level of expressed mRNA in the absence of chemical substance: 1.1
Yeast gene YNL276C
  The level of expressed mRNA in the presence of chemical substance/The level of expressed mRNA in the absence of chemical substance: 1.5
Yeast gene YNL300W, incubated two hours with chemical substance
  The level of expressed mRNA in the presence of chemical substance/The level of expressed mRNA in the absence of chemical substance: 0.7
Yeast gene YNR051C
  The level of expressed mRNA in the presence of chemical substance/The level of expressed mRNA in the absence of chemical substance: 2.1
Yeast gene YOL026C
  The level of expressed mRNA in the presence of chemical substance/The level of expressed mRNA in the absence of chemical substance: 1.2
Yeast gene YOL031C
  The level of expressed mRNA in the presence of chemical substance/The level of expressed mRNA in the absence of chemical substance: 2.4
Yeast gene YOL084W, incubated two hours with substance
  The level of expressed mRNA in the presence of chemical substance/The level of expressed mRNA in the absence of chemical substance: 6.4
Yeast gene YOL101C
  The level of expressed mRNA in the presence of chemical substance/The level of expressed mRNA in the absence of chemical substance: 0.2
Yeast gene YOR022C
  The level of expressed mRNA in the presence of chemical substance/The level of expressed mRNA in the absence of chemical substance: 1.7
Yeast gene YOR087W
  The level of expressed mRNA in the presence of chemical substance/The level of expressed mRNA in the absence of chemical substance: 1.2
Yeast gene YOR138C
  The level of expressed mRNA in the presence of chemical substance/The level of expressed mRNA in the absence of chemical substance: 1.8
Yeast gene YOR253W
  The level of expressed mRNA in the presence of chemical substance/The level of expressed mRNA in the absence of chemical substance: 0.5
Yeast gene YOR267C
  The level of expressed mRNA in the presence of chemical substance/The level of expressed mRNA in the absence of chemical substance: 1.4
Yeast gene YOR338W
  The level of expressed mRNA in the presence of chemical substance/The level of expressed mRNA in the absence of chemical substance: 1.4
Yeast gene YOR391C
  The level of expressed mRNA in the presence of chemical substance/The level of expressed mRNA in the absence of chemical substance: 2.3
Yeast gene YPL005W
  The level of expressed mRNA in the presence of chemical substance/The level of expressed mRNA in the absence of chemical substance: 1.2
Yeast gene YPL087W, incubated two hours with chemical substance
  The level of expressed mRNA in the presence of chemical substance/The level of expressed mRNA in the absence of chemical substance: 4.4
Yeast gene YPL150W
  The level of expressed mRNA in the presence of chemical substance/The level of expressed mRNA in the absence of chemical substance: 2.1
Yeast gene YPL152W
  The level of expressed mRNA in the presence of chemical substance/The level of expressed mRNA in the absence of chemical substance: 1.4
Yeast gene YPL168W
  The level of expressed mRNA in the presence of chemical substance/The level of expressed mRNA in the absence of chemical substance: 1.0
Yeast gene YPL180W
  The level of expressed mRNA in the presence of chemical substance/The level of expressed mRNA in the absence of chemical substance: 1.5
Yeast gene YPL188W
  The level of expressed mRNA in the presence of chemical substance/The level of expressed mRNA in the absence of chemical substance: 0.9
Yeast gene YPL221W
  The level of expressed mRNA in the presence of chemical substance/The level of expressed mRNA in the absence of chemical substance: 1.0
Yeast gene YPL225W
  The level of expressed mRNA in the presence of chemical substance/The level of expressed mRNA in the absence of chemical substance: 0.8
Yeast gene YPL280W
  The level of expressed mRNA in the presence of chemical substance/The level of expressed mRNA in the absence of chemical substance: 2.4
Yeast gene YPR049C
  The level of expressed mRNA in the presence of chemical substance/The level of expressed mRNA in the absence of chemical substance: 1.6
Yeast gene YPR146C
  The level of expressed mRNA in the presence of chemical substance/The level of expressed mRNA in the absence of chemical substance: 1.3
Yeast gene YPR148C
  The level of expressed mRNA in the presence of chemical substance/The level of expressed mRNA in the absence of chemical substance: 1.2
Yeast gene YPR158W, incubated two hours with substance
  The level of expressed mRNA in the presence of chemical substance/The level of expressed mRNA in the absence of chemical substance: 1.6
Yeast gene YPR172W
  The level of expressed mRNA in the presence of chemical substance/The level of expressed mRNA in the absence of chemical substance: 1.3
